This is an account of results in PMC12910498 (ACS pharmacology & translational science, 2026).

Read-outs that look alike come from different tables or passages of the source.

The target in data set [1] is T1, D5 (Homo sapiens, UniProt P21918).
T1 construct: Psychoactive Drug Screening Program (PDSP)
Briefly: PDSP primary screen, D5. In kind it is binding. As to conditions: 10 µM compound. The source says:
(§1) Receptor Primary Secondary Primary Secondary Primary Secondary Primary Secondary screen assay screen assay screen assay screen assay […]
(§2) inhibition in primary assessment.

The nature of data set [2]: Pharmacokinetics study in rats (plasma and brain). In kind it is in vivo, Sprague−Dawley rats. As to conditions: rat, 10 mg/kg IP. The method, then:
Given their adequate in vitro stability profiles, we next evaluated the in vivo pharmacokinetic profiles of 14, 15, 17, and 18 in rats. Sprague−Dawley rats were dosed with 5 mg/kg (14, 15, 17) or 10 mg/kg (18), i.p., and plasma and brain levels of each drug were measured 0−6 h postdose.
All animal experiments were performed following the protocols evaluated and approved by the Animal Care and Use Committee at Johns Hopkins University (Ethics Approval Number: RA24M403). Pharmacokinetic studies in Sprague−Dawley (SD) rats were conducted according to protocols approved. SD rats obtained from Harlan were maintained on a 12 h light−dark cycle with ad libitum access to food and water. Test compound was administered via i.p. injection at a dose of 10 mg/kg (100% saline vehicle, 10 mL/kg volume). The rats were sacrificed at specified time points (0.25, 0.5 h, 1, 2, 4, and 6 h) post drug administration. For the collection of plasma and brain tissue, animals were euthanized with CO2, and blood samples were collected in heparinized microtubes by cardiac puncture. Brains were dissected and immediately flash-frozen (−80 °C). Blood samples were spun at 2000g for 15 min, and plasma was removed and stored at −80 °C until analysis (as described below).
Quantitation of triazole analogs 14, 15, 17, and 18 was performed using liquid chromatography with tandem mass spectrometry (LC/MS-MS) methods. Briefly, calibration standards were prepared using respective tissue (naïve plasma and brain) with additions of the test compounds. For quantifying the test compounds in the pharmacokinetic samples, plasma samples (20 μL) were processed using a single liquid extraction method by addition of 100 μL of acetonitrile containing internal standard (losartan: 0.5 μM), followed by vortex-mixing for 30 s and then centrifugation at 10,000g for 10 min at 4 °C. Brain tissues were diluted 1:5 w/v with acetonitrile containing losartan (0.5 μm) and homogenized, followed by vortex-mixing and centrifugation at 10,000g for 10 min at 4 °C. A 50 μL aliquot of the supernatant was diluted with 50 μL of water and transferred to 250 μL polypropylene autosampler vials sealed with Teflon caps. Two μL of the sample was injected into the LC/MS/MS system for analysis. Chromatographic analysis was performed using an Accela ultra high-performance system consisting of an analytical pump and an autosampler coupled with a TSQ Vantage mass spectrometer. […] The mobile phase consisted of 0.1% formic acid in acetonitrile and 0.1% formic acid in water with gradient elution, starting with 10% organic phase (from 0 to 1 min) linearly increasing to 95% (from 1 to 2 min), and re-equilibrating to 10% by 3 min. The total run time for each analyte was 3.5 min. Pumps were operated at a flow rate of 0.4 mL/min. […] Plasma concentrations (nmol/mL) as well as brain tissue concentrations (nmol/g) were determined and plots of mean plasma concentration versus time were constructed. Noncompartmental analysis modules in Phoenix WinNonlin version 7.0 (Certara USA, Inc., Princeton, NJ) were used to quantify exposures (AUC0−t) and half-life (t1/2).

Data set [3] concerns the target T2, human D4R (Homo sapiens, UniProt P21917).
T2 sequence (P21917 1-419): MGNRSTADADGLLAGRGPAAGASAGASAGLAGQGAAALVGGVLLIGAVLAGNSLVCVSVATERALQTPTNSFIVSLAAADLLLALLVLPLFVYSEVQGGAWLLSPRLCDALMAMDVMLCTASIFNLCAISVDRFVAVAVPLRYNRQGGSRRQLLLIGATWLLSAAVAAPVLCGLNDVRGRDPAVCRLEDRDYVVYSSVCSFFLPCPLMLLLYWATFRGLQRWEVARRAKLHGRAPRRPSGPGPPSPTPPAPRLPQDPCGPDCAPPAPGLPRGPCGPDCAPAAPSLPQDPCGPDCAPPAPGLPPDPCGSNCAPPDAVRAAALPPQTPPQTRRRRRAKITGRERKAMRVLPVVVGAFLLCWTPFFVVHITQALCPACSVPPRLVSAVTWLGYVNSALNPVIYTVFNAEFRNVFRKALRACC
Briefly: [3H]N-methylspiperone radioligand competition binding, hD4R membranes. A general note: Displacement assays read how much labelled ligand stays bound in the presence of the test substance.

Data set [4] is described as follows: Phase I metabolic stability in human liver microsomes (with NADPH). In kind it is in vitro ADME. Conditions: pH 7.4, presence of NADPH, mean ± SD, n = 3. A digest of the protocol:
(§3)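 Liver microsomes were incubated in 100 mM potassium phosphate pH 7.4 with an NADPH-regenerating system (1.3 mM NADPH). Cofactor-free controls gauged non-CYP metabolism. Parent loss was followed in triplicate by LC-MS/MS (orbitrap, positive HESI, full scan), comparing 0, 30 and 60 min samples.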
A general note: Microsomes from liver hold many membrane-bound enzymes, among them those of drug oxidation.

Data set [5] concerns the target T3, D1 (Homo sapiens, UniProt P21728).
T3 construct: Psychoactive Drug Screening Program (PDSP)
The experiment in a line: PDSP primary screen and secondary assay, D1. In kind it is binding.
Description: as §1, §2

The target in data set [6] is T2, human D4R.
Data set [7] in a line: Phase I metabolic stability in rat liver microsomes (with NADPH). In kind it is in vitro ADME. Conditions: pH 7.4, presence of NADPH, mean ± SD, n = 3. In a few lines:
as §3

T3 sequence (P21728 whole entry): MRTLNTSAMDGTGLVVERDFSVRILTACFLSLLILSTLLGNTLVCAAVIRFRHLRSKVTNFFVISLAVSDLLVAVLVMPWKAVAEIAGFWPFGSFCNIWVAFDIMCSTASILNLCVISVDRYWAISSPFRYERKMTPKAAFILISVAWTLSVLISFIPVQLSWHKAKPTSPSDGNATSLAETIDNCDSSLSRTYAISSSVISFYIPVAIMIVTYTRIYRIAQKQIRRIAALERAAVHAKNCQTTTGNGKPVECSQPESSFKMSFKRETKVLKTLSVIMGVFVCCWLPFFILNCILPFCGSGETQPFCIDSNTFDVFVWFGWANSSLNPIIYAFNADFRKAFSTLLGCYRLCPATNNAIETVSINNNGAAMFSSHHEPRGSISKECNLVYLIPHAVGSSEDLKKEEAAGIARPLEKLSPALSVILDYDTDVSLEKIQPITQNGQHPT
T1 sequence (P21918 whole entry): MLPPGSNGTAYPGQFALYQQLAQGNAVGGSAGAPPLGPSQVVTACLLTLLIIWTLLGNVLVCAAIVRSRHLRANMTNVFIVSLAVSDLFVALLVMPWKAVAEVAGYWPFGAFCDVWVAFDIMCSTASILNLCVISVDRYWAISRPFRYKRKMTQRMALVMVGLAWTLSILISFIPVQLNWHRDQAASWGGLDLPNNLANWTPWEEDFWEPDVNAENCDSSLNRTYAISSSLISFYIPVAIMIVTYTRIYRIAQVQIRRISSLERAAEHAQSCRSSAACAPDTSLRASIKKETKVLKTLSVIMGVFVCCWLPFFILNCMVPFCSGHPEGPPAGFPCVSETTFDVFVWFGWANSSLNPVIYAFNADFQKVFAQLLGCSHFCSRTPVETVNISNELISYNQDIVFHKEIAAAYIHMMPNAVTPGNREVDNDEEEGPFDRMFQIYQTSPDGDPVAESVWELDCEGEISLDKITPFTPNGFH

One may read the inhibition as the relative decrease from the control value, in per cent. By half-life is commonly meant the time in which the quantity being followed falls by half. The Tmax is the time at which the peak concentration occurs. The AUC is concentration integrated over time. A low value points to low exposure. As a reminder, the Cmax is the highest concentration seen after dosing. A word on the Ki: it is the equilibrium dissociation constant of an inhibitor or competing ligand from its target. A high value points to weaker binding. One may read the EC50 as the concentration needed to bring the measured effect to its halfway point. High values mean weaker potency, low ones greater potency. As a reminder, the IC50 is the concentration that inhibits the measured activity by half. Lower therefore signals inhibition by little substance. The Emax is the size of the effect at its maximum, as opposed to the concentration needed. For `Cc1cccc(-n2cc(CN3CCN(c4cccc5ccccc45)CC3)nn2)c1` [Compound 18, 1-(Naphthalen-1-yl)-4-((1-(m-tolyl)-1H-1,2,3-triazol-4-yl)methyl)piperazine], the inhibition at 10 µM turned out to be 25.7% in data set [1] and 59.3% in data set [5] (10 µM compound). In data set [2] (Sprague-Dawley, brain and plasma, ip, 10 mg/kg, AUC brain/plasma, read-out: brain: Plasma ratio), the Kp was greater than 2.6. For the same molecule, the half-life is 2.46 h in data set [2] (Sprague-Dawley, brain, ip, 10 mg/kg, brain, read-out: half-life (h) brain (converted)); 2.54 h in data set [2] (Sprague-Dawley, plasma, ip, 10 mg/kg, plasma, read-out: half-life (h) plasma (converted)); roughly 2.5 h in data set [2] (Sprague-Dawley, plasma, ip, 10 mg/kg, tissue not specified, read-out: half-life (converted)); 1.02 ± 0.129 h in data set [4]; 0.946 ± 0.169 h in data set [7]. The Tmax in data set [2] (Sprague-Dawley, brain, read-out: Tmax (h) brain) amounted to 0.5 h; in data set [2] (Sprague-Dawley, plasma, read-out: Tmax (h) plasma) it was 0.5 h. This molecule also displayed an AUC in data set [2] (Sprague-Dawley, plasma) of 1.36 ± 0.29 µM·h. This molecule came in with a Cmax in data set [2] (Sprague-Dawley, plasma) of 700 ± 90 nM. Moreover, in data set [2] (AUC brain/plasma, 10 mg/kg), the “brain: Plasma ratio” value worked out at 2.63. Also, the AUC brain in data set [2] (brain) turned out to be 3.57 ± 0.77 nmol·h/g. Moreover, the Cmax brain in data set [2] (brain) is given as 2.08 ± 0.20 nmol/g. Also, the “peak in vivo brain concentrations expected” value in data set [2] (from brain Cmax) was “greater than 2.0 μM”. Moreover, the inhibition constant Ki amounted to 0.00433 ± 0.00102 µM in data set [3] and 783 nM in data set [5]. The “Selectivity D2R/D4R” value in data set [3] (ratio of Ki values) is 1510. Besides, the “Selectivity D3R/D4R” value in data set [3] (ratio of Ki values) is 2504. In addition, a half-maximal response in data set [6] (EC50) required 2.14 ± 1.07 µM. Besides, the 50% inhibitory concentration (IC50) in data set [6] turned out to be 0.904 ± 0.102 µM. Also, the “D4R Ant. (%)” value in data set [6] (cAMP, antagonist mode, 10 μM forskolin and 10 nM dopamine, normalized to spiperone) is recorded as 72 ± 5%. The Emax in data set [6] (read-out: D4R Emax (%)) was 24 ± 7%.
